These results are taken from patent publication US8470837B2, “MAPK/ERK kinase inhibitors” (Takeda Pharmaceutical Company Limted, priority 2006, dated 2013).

A value given as a limit tells only on which side of the number the result lay.

MEK1, sequence (Q02750 with tags, fused parts or gaps DEL30-49/S218E/S222D): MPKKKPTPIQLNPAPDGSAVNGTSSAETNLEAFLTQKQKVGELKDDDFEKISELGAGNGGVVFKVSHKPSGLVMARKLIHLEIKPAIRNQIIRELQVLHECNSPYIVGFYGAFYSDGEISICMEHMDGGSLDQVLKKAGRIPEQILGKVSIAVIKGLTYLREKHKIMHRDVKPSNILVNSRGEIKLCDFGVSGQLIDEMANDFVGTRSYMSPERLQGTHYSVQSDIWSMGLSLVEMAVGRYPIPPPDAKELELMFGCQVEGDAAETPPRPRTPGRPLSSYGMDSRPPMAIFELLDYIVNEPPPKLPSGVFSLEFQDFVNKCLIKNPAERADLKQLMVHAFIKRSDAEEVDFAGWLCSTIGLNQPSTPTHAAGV

This experiment has as its target MEK1 (Homo sapiens, UniProt Q02750, DEL30-49/S218E/S222D). The experiment is described as follows: MEK1 inhibition, fluorescence polarization assay with IMAP beads (ERK1 / FI-Erktide coupled). A general note: Fluorescence polarisation rises when a labelled molecule tumbles more slowly, as on binding a larger partner.
What is called IC50 is the concentration needed to halve the response being measured. A high value points to weaker potency in that assay. Take `Cn1c(=O)c(F)c(Nc2ccc(NS(C)(=O)=O)cc2F)c2c(=O)n(C[C@@H](O)CO)cnc21` [Example 23, (R)—N-(4-(3-(2,3-Dihydroxypropyl)-6-fluoro-8-methyl-4,7-dioxo-3,4,7,8-tetrahydropyrido[2,3-d]pyrimidin-5-ylamino)-3-fluorophenyl)methanesulfonamide]: the IC50 was at least 16 nM. Compound `C#Cc1ccc(Nc2c(F)c(=O)n(C)c3ncn(C[C@H](O)CO)c(=O)c23)c(F)c1` [Example 21, (S)-3-(2,3-Dihydroxypropyl)-5-(4-ethynyl-2-fluorophenylamino)-6-fluoro-8-methylpyrido[2,3-d]pyrimidine-4,7(3H,8H)-dione] showed an IC50 of 5 to 15 nM. In the case of `Cn1c(=O)c(F)c(Nc2ccc(I)cc2F)c2c(=O)n(C[C@@H](O)CO)cnc21` [Example 18, (R)-3-(2,3-Dihydroxypropyl)-6-fluoro-5-(2-fluoro-4-iodophenylamino)-8-methylpyrido[2,3-d]pyrimidine-4,7(3H,8H)-dione] it was at most 5 nM. In the case of `C#Cc1ccc(Nc2c(F)c(=O)n(C)c3ncn(C[C@@H](O)CO)c(=O)c23)c(F)c1` [Example 22, (R)-3-(2,3-dihydroxypropyl)-5-(4-ethynyl-2-fluorophenylamino)-6-fluoro-8-methylpyrido[2,3-d]pyrimidine-4,7(3H,8H)-dione] it was at most 5 nM. For `Cn1c(=O)c(F)c(Nc2ccc(I)cc2F)c2c(=O)n(OC[C@H](O)CO)cnc21` [Example 28, (R)-3-(2,3-Dihydroxypropoxy)-6-fluoro-5-(2-fluoro-4-iodophenylamino)-8-methylpyrido[2,3-d]pyrimidine-4,7(3H,8H)-dione], the IC50 was at most 5 nM.

For the compound `Cc1c(Nc2ccccc2F)c2c(=O)n(CCO)cnc2n(C)c1=O` [Example 15, 5-(2-Fluorophenylamino)-3-(2-hydroxyethyl)-6,8-dimethylpyrido[2,3-d]pyrimidine-4,7(3H,8H)-dione], the IC50 is at least 16 nM.

For the compound `Cn1c(=O)cc(Nc2ccc(Br)cc2Cl)c2c(=O)n(CCCO)cnc21` [Example 35, 5-(4-Bromo-2-chlorophenylamino)-3-(3-hydroxypropyl)-8-methylpyrido[2,3-d]pyrimidine-4,7(3H,8H)-dione], the IC50 is at least 16 nM. Regarding `Cn1c(=O)c(F)c(Nc2ccc(I)cc2F)c2c(=O)n(C[C@H](O)CO)cnc21` [Example 19, (S)-3-(2,3-Dihydroxypropyl)-6-fluoro-5-(2-fluoro-4-iodophenylamino)-8-methylpyrido[2,3-d]pyrimidine-4,7(3H,8H)-dione], the concentration for half-maximal inhibition (IC50) is at most 5 nM.

`Cc1c(Nc2ccc(I)cc2F)c2c(=O)n(C(CO)CO)cnc2n(C)c1=O` [Example 43, 3-(1,3-Dihydroxypropan-2-yl)-5-(2-fluoro-4-iodophenylamino)-6,8-dimethylpyrido[2,3-d]pyrimidine-4,7(3H,8H)-dione] gave an IC50 of 5 to 15 nM. Take `Cn1c(=O)cc(Nc2ccc(Br)cc2F)c2c(=O)n(CCCO)cnc21` [Example 33, 5-(4-Bromo-2-fluorophenylamino)-3-(3-hydroxypropyl)-8-methylpyrido[2,3-d]pyrimidine-4,7(3H,8H)-dione]: the IC50 was at least 16 nM. Take `Cn1c(=O)c(Cl)c(Nc2ccc(I)cc2F)c2c(=O)n(C[C@H](O)CO)cnc21` [Example 7, (S)-6-Chloro-3-(2,3-dihydroxypropyl)-5-(2-fluoro-4-iodophenylamino)-8-methylpyrido[2,3-d]pyrimidine-4,7(3H,8H)-dione]: the IC50 is at most 5 nM.

`CC(O)Cn1cnc2c(c(Nc3ccc(I)cc3F)c(Cl)c(=O)n2C)c1=O` (centres unmarked) [Example 40, 6-Chloro-5-(2-fluoro-4-iodophenylamino)-3-(2-hydroxypropyl)-8-methylpyrido[2,3-d]pyrimidine-4,7(3H,8H)-dione] had an IC50 of 5 to 15 nM.

Compound `CN(C)CCn1cnc2c(c(Nc3ccc(I)cc3F)cc(=O)n2C)c1=O` [Example 37, 3-(2-(Dimethylamino)ethyl)-5-(2-fluoro-4-iodophenylamino)-8-methylpyrido[2,3-d]pyrimidine-4,7(3H,8H)-dione] displayed an IC50 of at least 16 nM. `CC(O)Cn1cnc2c(c(Nc3ccc(I)cc3F)cc(=O)n2C)c1=O` (centres unmarked) [Example 38, 5-(2-Fluoro-4-iodophenylamino)-3-(2-hydroxypropyl)-8-methylpyrido[2,3-d]pyrimidine-4,7(3H,8H)-dione] registered a half-inhibitory concentration (IC50) of at least 16 nM. As for `Cn1c(=O)c(Cl)c(Nc2ccc(Br)cc2F)c2c(=O)n(CCCO)cnc21` [Example 34, 5-(4-Bromo-2-fluorophenylamino)-6-chloro-3-(3-hydroxypropyl)-8-methylpyrido[2,3-d]pyrimidine-4,7(3H,8H)-dione], the IC50 lay within 5 to 15 nM. As to `Cn1c(=O)c(Cl)c(Nc2ccc(I)cc2F)c2c(=O)n(CCCO)cnc21` [Example 32, 6-Chloro-5-(2-fluoro-4-iodophenylamino)-3-(3-hydroxypropyl)-8-methylpyrido[2,3-d]pyrimidine-4,7(3H,8H)-dione], the IC50 was at most 5 nM. The result for `C#Cc1ccc(Nc2c(C)c(=O)n(C)c3ncn(C[C@H](O)CO)c(=O)c23)c(F)c1` [Example 44, (S)-3-(2,3-Dihydroxypropyl)-5-(4-ethynyl-2-fluorophenylamino)-6,8-dimethylpyrido[2,3-d]pyrimidine-4,7(3H,8H)-dione] reads 5 to 15 nM; that for `Cc1c(Nc2ccc(Br)cc2F)c2c(=O)n(CCO)cnc2n(C)c1=O` [Example 11, 5-(4-Bromo-2-fluorophenylamino)-3-(2-hydroxyethyl)-6,8-dimethylpyrido[2,3-d]pyrimidine-4,7(3H,8H)-dione], at least 16 nM.

Compound `Cn1c(=O)c(F)c(Nc2ccc(I)cc2F)c2c(=O)n(C(CO)CO)cnc21` [Example 25, 3-(1,3-Dihydroxypropan-2-yl)-6-fluoro-5-(2-fluoro-4-iodophenylamino)-8-methylpyrido[2,3-d]pyrimidine-4,7(3H,8H)-dione] displayed an IC50 of at most 5 nM. With `C#Cc1ccc(Nc2c(C)c(=O)n(C)c3ncn(C[C@@H](O)CO)c(=O)c23)c(F)c1` [Example 16, (R)-3-(2,3-Dihydroxypropyl)-5-(4-ethynyl-2-fluorophenylamino)-6,8-dimethylpyrido[2,3-d]pyrimidine-4,7(3H,8H)-dione], the IC50 fell in the range of 5 to 15 nM. In turn, `Cn1c(=O)cc(Nc2ccc(I)cc2F)c2c(=O)n(Cc3ccccc3)cnc21` [Example 42, 3-Benzyl-5-(2-fluoro-4-iodophenylamino)-8-methylpyrido[2,3-d]pyrimidine-4,7(3H,8H)-dione] had an IC50 of at least 16 nM.

`Cn1c(=O)c(Cl)c(Nc2ccc(I)cc2F)c2c(=O)n(CCO)cnc21` [Example 30, 6-Chloro-5-(2-fluoro-4-iodophenylamino)-3-(2-hydroxyethyl)-8-methylpyrido[2,3-d]pyrimidine-4,7(3H,8H)-dione] came in with an IC50 of at most 5 nM. In turn, `COC(=O)Cn1cnc2c(c(Nc3ccc(I)cc3F)cc(=O)n2C)c1=O` [Example 3, Methyl 2-(5-(2-fluoro-4-iodophenylamino)-8-methyl-4,7-dioxo-7,8-dihydropyrido[2,3-d]pyrimidin-3(4H)-yl)acetate] returned an IC50 of at least 16 nM. The result for `Cc1c(Nc2ccc(I)cc2F)c2c(=O)n(CCO)cnc2n(C)c1=O` [Example 14, 5-(2-Fluoro-4-iodophenylamino)-3-(2-hydroxyethyl)-6,8-dimethylpyrido[2,3-d]pyrimidine-4,7(3H,8H)-dione] reads at most 5 nM.

For `Cn1c(=O)c(Cl)c(Nc2ccc(Br)cc2F)c2c(=O)n(C[C@@H](O)CO)cnc21` [Example 29, (R)-5-(4-Bromo-2-fluorophenylamino)-6-chloro-3-(2,3-dihydroxypropyl)-8-methylpyrido[2,3-d]pyrimidine-4,7(3H,8H)-dione], the IC50 fell in the range of 5 to 15 nM. In turn, `Cn1c(=O)cc(Nc2ccc(I)cc2F)c2c(=O)n(CCCO)cnc21` [Example 31, 5-(2-Fluoro-4-iodophenylamino)-3-(3-hydroxypropyl)-8-methylpyrido[2,3-d]pyrimidine-4,7(3H,8H)-dione] showed an IC50 of at most 5 nM. Regarding `Cc1c(Nc2ccc(Br)cc2F)c2c(=O)n(C[C@@H](O)CO)cnc2n(C)c1=O` [Example 10, (R)-5-(4-Bromo-2-fluorophenylamino)-3-(2,3-dihydroxypropyl)-6,8-dimethylpyrido[2,3-d]pyrimidine-4,7(3H,8H)-dione], the IC50 is at least 16 nM. As to `Cc1c(Nc2ccc(Br)cc2F)c2c(=O)n(C[C@H](O)CO)cnc2n(C)c1=O` [Example 9, (S)-5-(4-Bromo-2-fluorophenylamino)-3-(2,3-dihydroxypropyl)-6,8-dimethylpyrido[2,3-d]pyrimidine-4,7(3H,8H)-dione], the IC50 is at least 16 nM.

As for `Cn1c(=O)c(Cl)c(Nc2ccc(Br)cc2Cl)c2c(=O)n(CCCO)cnc21` [Example 36, 5-(4-Bromo-2-chlorophenylamino)-6-chloro-3-(3-hydroxypropyl)-8-methylpyrido[2,3-d]pyrimidine-4,7(3H,8H)-dione], the IC50 was at least 16 nM.
